Data reported in ChEMBL document CHEMBL1201862, “PubChem BioAssay data set” (2004).
Active and inactive are the calls of the source.

Tests used:
[1] = target: T1, Bcl-2-related protein A1 (Mus musculus, UniProt Q07440); assay type: functional;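 note: confirmatory dose–response counterscreen on Bfl-1, used to check hits from a UBC13 polyubiquitin inhibitor campaign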
T1 sequence (Q07440 whole entry): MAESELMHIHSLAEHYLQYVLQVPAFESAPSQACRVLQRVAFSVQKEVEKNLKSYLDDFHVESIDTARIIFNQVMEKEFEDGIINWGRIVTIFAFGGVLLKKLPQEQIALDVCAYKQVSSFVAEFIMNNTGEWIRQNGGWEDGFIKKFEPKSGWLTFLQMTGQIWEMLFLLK

[2] = target: T2, Ubiquitin-conjugating enzyme E2 N (Homo sapiens, UniProt P61088); assay type: functional
T2 sequence (P61088 whole entry): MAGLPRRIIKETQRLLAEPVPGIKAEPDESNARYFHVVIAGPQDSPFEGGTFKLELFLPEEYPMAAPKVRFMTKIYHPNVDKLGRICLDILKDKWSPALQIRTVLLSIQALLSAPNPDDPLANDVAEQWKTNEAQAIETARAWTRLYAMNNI

[3] = target: Intestinal-type alkaline phosphatase (Homo sapiens, UniProt P09923); assay: inhibition of human intestinal alkaline phosphatase – biochemical, dose response (AID 488876); assay type: functional
Intestinal-type alkaline phosphatase, sequence (P09923 whole entry): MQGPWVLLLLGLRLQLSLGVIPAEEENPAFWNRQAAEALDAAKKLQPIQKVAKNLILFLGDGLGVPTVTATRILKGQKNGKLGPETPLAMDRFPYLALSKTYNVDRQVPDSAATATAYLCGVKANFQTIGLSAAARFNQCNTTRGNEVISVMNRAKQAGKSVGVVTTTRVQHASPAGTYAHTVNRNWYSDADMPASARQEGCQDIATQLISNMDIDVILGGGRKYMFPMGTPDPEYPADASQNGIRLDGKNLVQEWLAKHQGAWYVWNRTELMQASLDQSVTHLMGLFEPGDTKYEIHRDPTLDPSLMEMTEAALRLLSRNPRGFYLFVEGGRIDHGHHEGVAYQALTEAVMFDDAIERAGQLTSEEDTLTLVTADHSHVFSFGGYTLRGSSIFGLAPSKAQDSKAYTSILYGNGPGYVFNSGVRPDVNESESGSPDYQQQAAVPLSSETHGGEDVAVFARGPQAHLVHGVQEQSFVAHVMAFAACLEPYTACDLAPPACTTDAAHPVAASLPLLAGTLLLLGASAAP

[4] = target: Heat shock protein HSP 90-alpha (Homo sapiens, UniProt P07900); assay type: functional, organism-based
[5] = target: T3, Apoptotic protease-activating factor 1 (Homo sapiens, UniProt O14727); assay type: functional
T3 sequence (O14727 whole entry): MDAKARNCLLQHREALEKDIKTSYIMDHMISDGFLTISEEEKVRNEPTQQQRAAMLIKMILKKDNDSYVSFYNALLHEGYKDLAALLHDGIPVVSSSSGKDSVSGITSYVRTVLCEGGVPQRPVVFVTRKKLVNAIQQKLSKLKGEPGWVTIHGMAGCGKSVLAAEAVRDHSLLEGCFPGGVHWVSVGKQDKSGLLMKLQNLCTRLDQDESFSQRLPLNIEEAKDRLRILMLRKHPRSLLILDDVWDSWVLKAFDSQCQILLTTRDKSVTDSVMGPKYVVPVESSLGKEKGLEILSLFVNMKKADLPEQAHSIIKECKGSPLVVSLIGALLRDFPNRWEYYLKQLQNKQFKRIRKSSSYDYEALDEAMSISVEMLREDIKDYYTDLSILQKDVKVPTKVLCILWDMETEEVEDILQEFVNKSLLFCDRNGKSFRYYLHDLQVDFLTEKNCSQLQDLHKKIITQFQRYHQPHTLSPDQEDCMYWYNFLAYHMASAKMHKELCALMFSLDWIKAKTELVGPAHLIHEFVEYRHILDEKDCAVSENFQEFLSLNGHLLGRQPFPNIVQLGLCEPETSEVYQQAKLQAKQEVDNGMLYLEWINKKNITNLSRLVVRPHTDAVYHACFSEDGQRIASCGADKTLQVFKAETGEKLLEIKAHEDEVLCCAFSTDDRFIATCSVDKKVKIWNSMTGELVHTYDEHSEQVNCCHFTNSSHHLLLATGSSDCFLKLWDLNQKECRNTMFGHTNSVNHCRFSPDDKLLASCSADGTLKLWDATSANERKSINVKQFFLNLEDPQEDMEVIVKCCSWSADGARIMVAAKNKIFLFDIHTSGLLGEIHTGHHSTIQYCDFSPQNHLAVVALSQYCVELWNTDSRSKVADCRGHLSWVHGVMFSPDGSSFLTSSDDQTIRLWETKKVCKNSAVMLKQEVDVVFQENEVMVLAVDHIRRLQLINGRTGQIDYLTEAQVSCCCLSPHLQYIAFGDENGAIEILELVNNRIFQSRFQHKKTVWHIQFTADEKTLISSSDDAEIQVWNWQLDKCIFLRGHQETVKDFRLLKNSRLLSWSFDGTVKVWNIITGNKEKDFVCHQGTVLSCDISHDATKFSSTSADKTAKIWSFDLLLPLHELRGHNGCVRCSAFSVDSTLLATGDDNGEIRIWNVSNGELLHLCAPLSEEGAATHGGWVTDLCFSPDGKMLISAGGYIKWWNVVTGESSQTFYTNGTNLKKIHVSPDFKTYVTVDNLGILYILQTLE

[6] = target: T4, Insulin-degrading enzyme (Homo sapiens, UniProt P14735); assay: cellular IDE activation of Abeta substrate cleavage – fluorescence polarization, HEK cells, dose response (AID 588439); assay type: functional, cell-based
T4 sequence (P14735 whole entry): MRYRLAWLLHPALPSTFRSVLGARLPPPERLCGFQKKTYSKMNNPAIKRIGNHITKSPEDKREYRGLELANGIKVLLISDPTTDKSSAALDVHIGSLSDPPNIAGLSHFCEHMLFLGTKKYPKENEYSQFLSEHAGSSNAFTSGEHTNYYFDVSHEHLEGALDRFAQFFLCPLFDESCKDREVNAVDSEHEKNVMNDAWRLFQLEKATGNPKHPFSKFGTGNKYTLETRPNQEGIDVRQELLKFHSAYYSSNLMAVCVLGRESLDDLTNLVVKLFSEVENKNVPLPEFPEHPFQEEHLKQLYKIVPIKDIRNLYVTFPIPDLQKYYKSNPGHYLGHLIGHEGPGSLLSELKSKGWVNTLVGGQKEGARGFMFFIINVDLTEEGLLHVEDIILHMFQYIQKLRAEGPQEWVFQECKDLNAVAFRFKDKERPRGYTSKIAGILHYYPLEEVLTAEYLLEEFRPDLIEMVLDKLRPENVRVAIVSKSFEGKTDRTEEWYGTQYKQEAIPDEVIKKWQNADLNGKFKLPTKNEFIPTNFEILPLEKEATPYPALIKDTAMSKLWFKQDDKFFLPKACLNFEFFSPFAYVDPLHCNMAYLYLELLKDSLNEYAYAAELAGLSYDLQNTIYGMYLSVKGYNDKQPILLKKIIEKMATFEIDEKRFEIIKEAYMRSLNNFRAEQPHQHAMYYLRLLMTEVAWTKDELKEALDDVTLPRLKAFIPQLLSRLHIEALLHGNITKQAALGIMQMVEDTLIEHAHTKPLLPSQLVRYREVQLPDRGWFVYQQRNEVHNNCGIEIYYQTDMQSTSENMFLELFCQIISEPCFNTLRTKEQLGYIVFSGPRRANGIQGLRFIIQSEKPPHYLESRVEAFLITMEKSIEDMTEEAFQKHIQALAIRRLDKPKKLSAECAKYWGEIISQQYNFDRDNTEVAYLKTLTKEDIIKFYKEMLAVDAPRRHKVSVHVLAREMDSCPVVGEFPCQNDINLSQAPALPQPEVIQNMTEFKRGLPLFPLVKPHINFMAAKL

[7] = target: 5-hydroxytryptamine receptor 5A (Homo sapiens, UniProt P47898); assay: Counterscreen for agonists of OPRM1-OPRD1 heterodimerization: luminescence-based cell-based high throughput dose response assay to identify agonists of 5-hydroxytryptamine (serotonin) 5A receptor (HTR5A). [Related pubchem assays (depositor defined):AID504326, AID504355, AID504692, AID504904, AID504905]; assay type: functional
5-hydroxytryptamine receptor 5A, sequence (P47898 whole entry): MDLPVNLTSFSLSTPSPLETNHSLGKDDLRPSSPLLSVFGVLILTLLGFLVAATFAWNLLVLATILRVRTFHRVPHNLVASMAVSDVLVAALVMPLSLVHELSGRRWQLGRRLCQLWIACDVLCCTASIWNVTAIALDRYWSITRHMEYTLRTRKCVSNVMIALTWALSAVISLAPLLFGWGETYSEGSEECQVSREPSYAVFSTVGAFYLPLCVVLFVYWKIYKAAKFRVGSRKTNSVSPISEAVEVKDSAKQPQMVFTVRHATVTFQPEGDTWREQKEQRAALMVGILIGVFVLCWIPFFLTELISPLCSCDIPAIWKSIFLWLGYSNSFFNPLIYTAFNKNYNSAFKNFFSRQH

[8] = target: Small ubiquitin-related modifier 1 (Homo sapiens, UniProt P63165); assay: SUMO1 protein interaction blockers, potency – biochemical, fluorescence polarization, uHTS hits, dose response (AID 624382); assay type: functional; conditions: read-out: IC50_Mean
Small ubiquitin-related modifier 1, sequence (P63165 whole entry): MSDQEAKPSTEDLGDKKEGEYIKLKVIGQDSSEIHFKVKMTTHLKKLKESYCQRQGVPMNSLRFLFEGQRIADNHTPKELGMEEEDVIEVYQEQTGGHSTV

Clc1ccc(C(c2ccc(Cl)cc2)n2cc[n+](CC(OCc3ccc(Cl)cc3Cl)c3ccc(Cl)cc3Cl)c2)cc1 (stereo not drawn) [CALMIDAZOLIUM CHLORIDE]
active: IC50 [1] 6.23 µM | IC50 [2] 5.6 µM | AC50 [4] 7.07 µM | IC50 [5] 12.7 µM | EC50 [6] > 2.03 µM
inactive: IC50 [3] > 100 µM | EC50 [7] > 92.5 µM | IC50 [8] > 66.6 µM
